The numbers were not newly measured in patent US8409558B2, “Method for treatment of onychomycosis” (priority 2005, dated 2013), which cites them from elsewhere.

The data set relates to onychomycosis (nail fungus).

With `CN(C/C=C/C#CC(C)(C)C)Cc1cccc2ccccc12` [Lamisil, terbinafine], under “continuous oral therapy”, the complete cure is given as 41% and the mycological cure was 71%. In addition, the “cure of all nails (complete cure of all nails after 1 yr; % effective)” value (oral therapy, Warshaw et al. JAAD October 2005) is recorded as 25%.
